Reference: patent publication US20140193338A1, “COMPOUNDS FOR USE IN IMAGING, DIAGNOSING AND/OR TREATMENT OF DISEASES OF THE CENTRAL NERVOUS SYSTEM” (PIRAMAL IMAGING SA, priority 2011, published 2014)
Entries after “also recorded” stand apart in the source; their conditions may differ.

What was measured:
[1] = biological target: T1, MAO-B (Homo sapiens, UniProt P27338); test: Autoradiography with [^18F]rasagiline on human brain sections, blocking with excess inhibitor; type: binding
T1 construct: Autoradiography using [^18F]rasagiline on human brain slices from a healthy subject; from tissue; host or cells: human brain hemisphere cryosections (100 µm)
T1 sequence (P27338 1-520): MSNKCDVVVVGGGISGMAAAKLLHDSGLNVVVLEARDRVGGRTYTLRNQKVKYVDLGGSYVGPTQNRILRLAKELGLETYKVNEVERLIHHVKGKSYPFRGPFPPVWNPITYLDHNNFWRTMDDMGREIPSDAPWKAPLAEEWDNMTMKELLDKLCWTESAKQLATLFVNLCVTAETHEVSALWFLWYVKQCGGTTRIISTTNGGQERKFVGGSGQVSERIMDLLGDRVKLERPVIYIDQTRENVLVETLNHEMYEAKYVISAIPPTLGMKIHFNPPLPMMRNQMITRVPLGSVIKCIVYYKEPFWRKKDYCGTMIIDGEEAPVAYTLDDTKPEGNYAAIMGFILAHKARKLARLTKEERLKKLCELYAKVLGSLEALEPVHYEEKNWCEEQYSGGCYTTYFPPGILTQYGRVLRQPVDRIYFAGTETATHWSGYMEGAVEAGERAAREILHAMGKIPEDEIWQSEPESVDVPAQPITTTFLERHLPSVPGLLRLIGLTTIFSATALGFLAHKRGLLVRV
Procedure: Binding of the [^18F]rasagiline (compound of formula F) was investigated on human brain sections from normal subjects using a standard protocol.
In brief, whole brain hemispheres were cut at a 100 μm thickness in a Cryocut (Leica, Germany), thaw mounted onto gelatine glass slides and kept at −25° C. before use. Thereafter, the slides containing the regions of interest (e.g. hippocampus, thalamus) were removed and brought to room temperature. The sections were incubated with 0.2 MBq/mL [^18F] compound F in 50 mM TRIS/0.1% BSA (pH 7.4) with salts (120 mM NaCl, 5 mM KCl, 1 mM CaCl2, 1 mM MgCl2) for 90 min at room temperature and washed three times for 5 min each in 50 mM TRIS (pH 7.4). The sections were dipped once into ice cold distilled water, dried at room temperature and exposed to PhosphorImager plates (FUJI BAS 5000) overnight.

[2] = test system: MAO-B; test: PET brain time activity curves (SUV) in cynomolgus monkeys; type: in vivo, cynomolgus monkey
Procedure: One monkey weighing 6.3 kg was injected i.v. with 163 MBq [^18F]rasagiline (compound F) under sevofluorane anaesthesia.
Two cynomolgus monkeys weighting 5.25 and 6.2 kg, respectively were investigated. They were injected i.v. under sevofluorane anaesthesia with 168 MBq and 174 MBq [^18F],(^2H2)rasagiline (1), respectively.

[3] = Blood radioactivity / metabolite profile by radio-HPLC after tracer injection; type: in vivo, cynomolgus monkey; conditions: for number of ^18F labelled metabolites detected: plasma, radio-HPLC, over the time of the investigation
Text: In addition, the blood radioactivity profiles have been monitored over time using radio-HPLC measurements and were decay corrected (d.c.) (FIGS. 4 and 5).

[4] = pre-treated with 0.5 mg/kg (L)-deprenyl

## C#CCN[C@H]1c2ccccc2C[C@@H]1[18F] [compound F, reference compound]
[1]; conclusion from blocking experiments
  specificity of the ligand: specifically interacting with MAO-B
[1]; human brain slices, healthy subject, globus pallidus, putamen, caudate, thalamus, hippocampus, 0.2 MBq/mL, 90 min
  autoradiography signal in brain regions with known MAO-B activity: high signal intensity
[2]; i.v., PET
  initial brain uptake, striatal (caudate and putamen) and thalamic ROI: ca. 400 % SUV
  initial brain uptake, whole brain: ca. 280 % SUV
[2]; until the end of the observation time
  increase of whole brain signal over time: about 35 % SUV
[2]; within 15 minutes
  whole brain level after slight elimination: ca. 225 % SUV
[3]
  number of ^18F labelled metabolites detected: eight

## C#CCN[C@@H]1CCc2ccccc21 [rasagiline]
[1]; excess (10 μM) of the inhibitor in the incubation solution
  blocking of the [^18F]rasagiline (compound F) autoradiography signal: completely blocked

## [2H]C([2H])(C#C)N[C@H]1c2ccccc2C[C@@H]1[18F] [compound 1, (1S,2S)-2-[^18F]fluoro-N-[(1,1-^2H2)prop-2-yn-1-yl]indan-1-amine]
[2]; i.v., PET
  initial uptake in whole brain relative to [^18F]rasagiline (compound F): comparable to that of [^18F]rasagiline (compound F)
[2]; [4]
  decrease in uptake after deprenyl pre-treatment, Cerebellum: 46%
  decrease in uptake after deprenyl pre-treatment, Striatum: 45%
  decrease in uptake after deprenyl pre-treatment, Thalamus: 47%
  decrease in uptake after deprenyl pre-treatment, cortex: 40%
[2]; whole brain TAC
  brain elimination behaviour after initial uptake: eliminated in a manner resembling that of a reversible ligand
[3]; decay corrected
  metabolite corrected blood radioactivity time curve compared to the non-deuterated compound: slower elimination; also recorded: increased blood radioactivity over time
[3]
  number of ^18F labelled metabolites detected: two
